Data reported in patent US9936701B2, “Herbicidal compounds” (Syngenta Participations AG, priority 2013, dated 2018).

Experiments:
[1] = system: a variety of test species; test: Pre-emergence herbicidal activity (glasshouse, sprayed one day after sowing, evaluated after 13 days); format: in vivo; design: key: 5=total damage to plant; 0=no damage to plant; conditions: application pre-emergence, rate 1000 g/Ha, scale 0-5
Outline: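 Pre-emergence spray, one day post-sowing; vehicle acetone/water (50:50) + 0.5% Tween 20, aqueous dilution. Glasshouse 24/16 °C, 14 h light, 65% RH, watering twice daily. Score at 13 d on 0–5 scale, 5 = total damage.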

[2] = system: a variety of test species; test: Post-emergence herbicidal activity (glasshouse, sprayed after 8 days cultivation, evaluated after 13 days); format: in vivo; design: key: 5=total damage to plant; 0=no damage to plant; conditions: rate 1000 g/Ha, scale 0-5
Outline: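 Foliar application to 8-day-old plants using a 0.5% Tween 20 acetone/water carrier; phytotoxicity is scored visually from 0 to 5 after 13 days of growth at 24/16 °C day/night.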

Row | melting point | SMILES | Pre-emergence herbicidal damage score, ABUTH [1] | Pre-emergence herbicidal damage score, ALOMY [1] | Pre-emergence herbicidal damage score, AMARE [1] | Pre-emergence herbicidal damage score, ECHCG [1] | Pre-emergence herbicidal damage score, SETFA [1] | Pre-emergence herbicidal damage score, ZEAMX [1] | ABUTH (Abutilon theophrasti) damage score, application post-emergence [2] | ALOMY (Alopecurus myosuroides) damage score, application post-emergence [2] | AMARE (Amaranthus retroflexus) damage score, application post-emergence [2] | ECHCG (Echinochloa crus-galli) damage score, application post-emergence [2] | SETFA (Setaria faberi) damage score, application post-emergence [2] | ZEAMX (Zea mays) damage score, application post-emergence [2]
1 | 156 to 158 °C | CC1=C(Cl)C(=O)N(c2cc(C(C)(C)C)on2)C1O (centres unmarked) [A2, 1-(5-tert-butylisoxazol-3-yl)-4-chloro-2-hydroxy-3-methyl-2H-pyrrol-5-one] | 5 | 3 | 5 | 5 | 5 | 3 | 5 | 5 | 5 | 5 | 5 | 5
2 | 126 to 128 °C | CC1=C(Cl)C(=O)N(c2cc(C(C)C)on2)C1O (centres unmarked) [A11] | 5 | 4 | 5 | 5 | 5 | 2 | 5 | 5 | 5 | 5 | 5 | 5
3 | 138 to 140 °C | CC1=C(Cl)C(=O)N(c2cc(CC(C)C)on2)C1O (centres unmarked) [A12] | 5 | 4 | 4 | 5 | 5 | 1 | 5 | 5 | 5 | 5 | 5 | 4
4 | 98 to 100 °C | CC1=C(Cl)C(=O)N(c2noc(C(C)(C)C)c2F)C1O (centres unmarked) [A19, 1-(5-tert-butyl-4-fluoro-isoxazol-3-yl)-4-chloro-2-hydroxy-3-methyl-2H-pyrrol-5-one] |  | 4 | 5 | 5 | 5 |  |  | 5 | 5 | 5 | 5 | 
5 | 134 to 136 °C | CC1=C(Cl)C(=O)N(c2noc(C(C)(C)C)c2C)C1O (centres unmarked) [A20, 1-(5-tert-butyl-4-methyl-isoxazol-3-yl)-4-chloro-2-hydroxy-3-methyl-2H-pyrrol-5-one] |  | 4 | 1 | 5 | 5 |  |  | 5 | 4 | 5 | 5 | 
6 | 130 to 132 °C | CC1=C(Cl)C(=O)N(c2cc(C3CCC3)on2)C1O (centres unmarked) [A21] |  | 3 | 5 | 5 | 3 |  |  | 5 | 5 | 5 | 5 | 
7 | 174 to 176 °C | CC1=C(Cl)C(=O)N(c2cc(C3CC3)on2)C1O (centres unmarked) [A22] | 5 | 4 | 4 | 5 | 5 | 1 | 5 | 5 | 5 | 5 | 5 | 4
8 | 158 to 160 °C | CC1=C(Cl)C(=O)N(c2noc(C(C)(C)C)c2Br)C1O (centres unmarked) [A23, 1-(4-bromo-5-tert-butyl-isoxazol-3-yl)-4-chloro-2-hydroxy-3-methyl-2H-pyrrol-5-one] | 5 | 4 | 5 | 5 | 3 | 3 | 5 | 5 | 5 | 5 | 5 | 4
9 | 169 to 171 °C | CC1=C(Cl)C(=O)N(c2cc(C(C)(C)C(N)=O)on2)C1O (centres unmarked) [A67, 2-[3-(4-chloro-2-hydroxy-3-methyl-5-oxo-2H-pyrrol-1-yl)isoxazol-5-yl]-2-methyl-propanamide] |  |  |  |  |  |  |  |  |  |  |  | 
10 |  | COC1=C(C)CN(c2cc(C(C)(C)C)on2)C1=O [D9] |  | 4 | 5 | 4 | 4 |  |  | 5 | 5 | 5 | 5 | 
11 |  | COC1=C(OC)C(O)N(c2cc(C(C)(C)C)on2)C1=O (centres unmarked) [F1] | 5 | 3 | 5 | 4 | 4 | 2 | 5 | 4 | 5 | 5 | 5 | 5
12 |  | COC1=C(C)C(=O)N(c2cc(C(C)(C)C)on2)C1O (centres unmarked) [G1] | 5 | 3 | 5 | 5 | 4 | 1 | 5 | 5 | 5 | 5 | 5 | 5
13 |  | COC1=C(C)C(=O)N(c2cc(C)on2)C1O (centres unmarked) [G2] | 5 | 1 | 5 | 3 | 3 | 1 | 3 | 2 | 5 | 2 | 1 | 1
14 |  | COCC(C)(C)c1cc(N2C(=O)C(C)=C(OC)C2O)no1 (centres unmarked) [G3] | 5 | 3 | 5 | 5 | 5 | 4 | 5 | 4 | 3 | 5 | 5 | 5
15 |  | COC1=C(C)C(=O)N(c2noc(C(C)(C)C)c2C#N)C1O (centres unmarked) [G7] | 5 | 4 | 5 | 5 | 5 | 4 | 5 | 5 | 5 | 5 | 5 | 5
